Laboratory results: ChEMBL document CHEMBL1201862, “PubChem BioAssay data set” (2004)
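96-well plates; 48 h exposure; 5 concentrations. Endpoints by linear interpolation between flanking doses. Not reached: highest tested concentration assigned. GI50 is the concentration that inhibits growth by half.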 The source made the active and inactive calls. Rule as the data show it: active = GI50 up to about 1.1 µM and inactive = higher.

What was measured:
Experiment in all cases: NCI anticancer screen, dose series, 48 h
786-0 = test system: 786-0
A549 = test system: A549
RPMI-8226 = test system: RPMI-8226
A498 = test system: A498
SK-MEL-5 = test system: SK-MEL-5
M14 = test system: M14
HL-60 = test system: HL-60
CCRF-CEM = test system: CCRF-CEM
SK-OV-3 = test system: SK-OV-3
UACC-62 = test system: UACC-62
RXF 393 = test system: RXF 393
KM12 = test system: KM12
ACHN = test system: ACHN
OVCAR-3 = test system: OVCAR-3
NCI-H23 = test system: NCI-H23
SR = test system: SR
NCI-H522 = test system: NCI-H522

Measured: GI50

CC1(C)CCC[C@@]2(C)C1CCC1(C)C(CCc3ccoc3)/C(=C/OS(=O)(=O)O)CCC12 (stereo not given in full)
inactive: 786-0 > 100 µM | A549 > 100 µM | RPMI-8226 33.7 µM | A498 > 100 µM | SK-MEL-5 > 100 µM | M14 42.7 µM | HL-60 37.1 µM | CCRF-CEM 25.4 µM | SK-OV-3 71.9 µM | UACC-62 > 100 µM | RXF 393 61.9 µM | KM12 > 100 µM | ACHN > 100 µM | OVCAR-3 > 100 µM | NCI-H23 50.4 µM | SR 23.1 µM

CC(=O)OCC1OC(n2cc(F)c(=O)[nH]c2=O)C(NC(=O)N(CCCl)N=O)C(OC(C)=O)C1OC(C)=O (stereo not given)
inactive: 786-0 54.2 µM | A549 89.7 µM | RPMI-8226 > 100 µM | A498 > 100 µM | SK-MEL-5 > 100 µM | M14 > 100 µM | HL-60 51.5 µM | NCI-H522 > 100 µM | CCRF-CEM > 100 µM | SK-OV-3 > 100 µM | UACC-62 23.2 µM | KM12 > 100 µM | ACHN > 100 µM | OVCAR-3 > 100 µM | NCI-H23 > 100 µM | SR 97.9 µM

Cc1nc(Nc2ccccc2)sc1C(=O)NNc1ccc([N+](=O)[O-])cc1[N+](=O)[O-]
inactive: 786-0 27.9 µM | A549 93.5 µM | SK-MEL-5 25.5 µM | M14 38.9 µM | HL-60 13.9 µM | NCI-H522 19.5 µM | CCRF-CEM 14.2 µM | SK-OV-3 40.6 µM | UACC-62 5.94 µM | RXF 393 35.2 µM | KM12 34.4 µM | ACHN 14.2 µM | OVCAR-3 34.4 µM | NCI-H23 17.5 µM | SR 14.7 µM

CC(=O)Nc1cc2c(s1)CCC1CC(=O)NN=C21 (stereo not given)
inactive: 786-0 > 100 µM | A549 > 100 µM | RPMI-8226 > 100 µM | SK-MEL-5 > 100 µM | M14 > 100 µM | HL-60 > 100 µM | NCI-H522 > 100 µM | CCRF-CEM > 100 µM | UACC-62 > 100 µM | RXF 393 > 100 µM | KM12 > 100 µM | ACHN > 100 µM | OVCAR-3 > 100 µM | NCI-H23 > 100 µM | SR > 100 µM

CCCn1c(SCC)c2cc3cc4ccccc4cc3cc2c1-c1nc(F)nc(F)n1
inactive: 786-0 > 100 µM | A549 > 100 µM | RPMI-8226 > 100 µM | SK-MEL-5 > 100 µM | M14 > 100 µM | HL-60 > 100 µM | NCI-H522 > 100 µM | CCRF-CEM > 100 µM | SK-OV-3 > 100 µM | RXF 393 > 100 µM | KM12 > 100 µM | ACHN > 100 µM | OVCAR-3 > 100 µM | NCI-H23 > 100 µM | SR > 100 µM

CCCCN(CCCC)CC(C(C)=O)C(c1ccccc1)c1c(O)c2ccccc2oc1=O (stereo not given)
inactive: 786-0 > 100 µM | A549 > 100 µM | RPMI-8226 > 100 µM | SK-MEL-5 > 100 µM | M14 > 100 µM | HL-60 > 100 µM | NCI-H522 > 100 µM | CCRF-CEM > 100 µM | SK-OV-3 > 100 µM | UACC-62 > 100 µM | RXF 393 84.7 µM | KM12 > 100 µM | ACHN > 100 µM | OVCAR-3 > 100 µM | NCI-H23 > 100 µM | SR > 100 µM

CC(C)(c1ccc(C=O)o1)c1ccc(C(C)(C)c2ccc(C=O)o2)o1
inactive: 786-0 > 100 µM | A549 > 100 µM | A498 > 100 µM | HL-60 > 100 µM | NCI-H522 > 100 µM | CCRF-CEM > 100 µM | SK-OV-3 > 100 µM | RXF 393 > 100 µM | KM12 > 100 µM | ACHN > 100 µM | NCI-H23 > 100 µM | SR > 100 µM
